Patent publication US10722516B2, “Use of landiolol hydrochloride in the long-term treatment of tachyarrhythmias” (AOP Orphan Pharmaceuticals AG, priority 2013, dated 2020)
Entries after “also recorded” stand apart in the source; their conditions may differ. Structures can show the parent of a compound that is named as a salt.

Test system: healthy volunteers
Assay: 24 h long-term infusion study, AOP LDLL600 against esmolol: heart rate
Assay type: in vivo, human
Settings: for heart rate: Table 1
Experimental: A single centre prospective, randomized, double blind, crossover, pharmacokinetic, safety and tolerability study to compare long-term infusion administration of AOP LDLL600 against esmolol in healthy volunteers was performed.
Landiolol hydrochloride lyophilized (LDLL600) comprises 600 mg landiolol hydrochloride, 600 mg mannitol, pH 6.5. The primary packing of LDLL600 is 50 ml vial, the reconstitution volume is 50 ml and the final product concentration is 12 mg/mL landiolol HCl.
12 subjects were administered AOP LDLL600 or Esmolol (Brevibloc, 2500 mg/250 ml) in 1:1 ratio in double-blind, randomized, cross-over setting. PK, systemic cardiovascular and local tolerability and safety of the 24 h-long term infusions of three dose levels of both IMPs during each treatment period were assessed.
Landiolol was infused over 24 h in a dose of 10 μg/KG/min (2 hrs), followed by 20 μg/KG/min (2 hrs), followed by 40 μg/KG/min for 20 hrs.
Dosing algorithm was body weight divided by 20, 10 and 5 in ml/h giving 10, 20 and 40 μg/KG/min at a concentration of 12 mg/ml. No severe adverse drug reactions, mild local reactions, 1 severe local reaction (Esmolol High Dose).
Landiolol was infused over 24 h in a dose of 10, 20 and 40 μg/KG/min, i.e. 10 μg/KG/min landiolol were administered for 2 hrs, followed by 2 hrs administration of 20 μg/KG/min and further followed by 20 hrs administration of 40 μg/KG/min.
Post-infusion follow up measurements were performed immediately after 20 hrs administration study, i.e. 2, 4 min etc. after stop of landiolol administration.

[1] = LD infusion (landiolol 10, esmolol 50 μg/kg/min), 3 min
[2] = LD infusion (landiolol 10, esmolol 50 μg/kg/min), 4 min
[3] = LD infusion (landiolol 10, esmolol 50 μg/kg/min), 6 min
[4] = LD infusion (landiolol 10, esmolol 50 μg/kg/min), 8 min
[5] = LD infusion (landiolol 10, esmolol 50 μg/kg/min), 12 min
[6] = LD infusion (landiolol 10, esmolol 50 μg/kg/min), 16 min
[7] = LD infusion (landiolol 10, esmolol 50 μg/kg/min), 20 min
[8] = LD infusion (landiolol 10, esmolol 50 μg/kg/min), 30 min
[9] = LD infusion (landiolol 10, esmolol 50 μg/kg/min), 60 min
[10] = LD infusion (landiolol 10, esmolol 50 μg/kg/min), 90 min
[11] = LD infusion (landiolol 10, esmolol 50 μg/kg/min), 2 h
[12] = MD infusion (landiolol 20, esmolol 100 μg/kg/min, after 2 h LD), 2 min
[13] = MD infusion (landiolol 20, esmolol 100 μg/kg/min, after 2 h LD), 3 min
[14] = MD infusion (landiolol 20, esmolol 100 μg/kg/min, after 2 h LD), 4 min
[15] = MD infusion (landiolol 20, esmolol 100 μg/kg/min, after 2 h LD), 6 min
[16] = MD infusion (landiolol 20, esmolol 100 μg/kg/min, after 2 h LD), 8 min
[17] = MD infusion (landiolol 20, esmolol 100 μg/kg/min, after 2 h LD), 12 min
[18] = MD infusion (landiolol 20, esmolol 100 μg/kg/min, after 2 h LD), 16 min
[19] = MD infusion (landiolol 20, esmolol 100 μg/kg/min, after 2 h LD), 20 min
[20] = MD infusion (landiolol 20, esmolol 100 μg/kg/min, after 2 h LD), 30 min
[21] = MD infusion (landiolol 20, esmolol 100 μg/kg/min, after 2 h LD), 60 min
[22] = MD infusion (landiolol 20, esmolol 100 μg/kg/min, after 2 h LD), 90 min
[23] = MD infusion (landiolol 20, esmolol 100 μg/kg/min, after 2 h LD), 2 h

CC1(C)OC[C@@H](COC(=O)CCc2ccc(OC[C@@H](O)CNCCNC(=O)N3CCOCC3)cc2)O1 [Landiolol, (−)-[(S)-2,2-dimethyl-1,3-dioxolan-4-yl]methyl 3-[4-[(S)-2-hydroxy-3-(2-morpholinocarbonylamino)ethylamino]propoxy]phenylpropionate monohydrochloride]
heart rate, Mean (SD) (LD infusion (landiolol 10, esmolol 50 μg/kg/min), 2 min): 65.6 (5.09) beats per minute
change of heart rate from predose, Mean (SD) [1]: −2.5 (7.48) beats per minute
heart rate, Mean (SD) [1]: 64.8 (6.82) beats per minute
change of heart rate from predose, Mean (SD) [2]: −2.8 (6.38) beats per minute
heart rate, Mean (SD) [2]: 64.6 (6.97) beats per minute
change of heart rate from predose, Mean (SD) [3]: −1.7 (7.97) beats per minute
heart rate, Mean (SD) [3]: 65.7 (8.78) beats per minute
change of heart rate from predose, Mean (SD) [4]: −3.6 (9.07) beats per minute
heart rate, Mean (SD) [4]: 63.8 (6.57) beats per minute
change of heart rate from predose, Mean (SD) [5]: −4.7 (10.99) beats per minute
heart rate, Mean (SD) [5]: 62.7 (7.71) beats per minute
change of heart rate from predose, Mean (SD) [6]: −7.1 (5.32) beats per minute
heart rate, Mean (SD) [6]: 60.3 (6.72) beats per minute
change of heart rate from predose, Mean (SD) [7]: −7.3 (10.51) beats per minute
heart rate, Mean (SD) [7]: 60.0 (6.05) beats per minute
change of heart rate from predose, Mean (SD) [8]: −7.8 (12.55) beats per minute
heart rate, Mean (SD) [8]: 59.5 (8.55) beats per minute
change of heart rate from predose, Mean (SD) [9]: −9.6 (11.89) beats per minute
heart rate, Mean (SD) [9]: 57.8 (8.05) beats per minute
change of heart rate from predose, Mean (SD) [10]: −9.3 (11.33) beats per minute
heart rate, Mean (SD) [10]: 58.1 (7.14) beats per minute
change of heart rate from predose, Mean (SD) [11]: −11.2 (11.75) beats per minute
heart rate, Mean (SD) [11]: 56.2 (5.89) beats per minute
change of heart rate from predose, Mean (SD) (MD Predose (end of 2 h LD)): −11.2 (11.75) beats per minute
heart rate, Mean (SD) (MD Predose (end of 2 h LD)): 56.2 (5.89) beats per minute
change of heart rate from predose, Mean (SD) [12]: −11.1 (10.73) beats per minute
heart rate, Mean (SD) [12]: 56.3 (6.48) beats per minute
change of heart rate from predose, Mean (SD) [13]: −9.8 (7.90) beats per minute
heart rate, Mean (SD) [13]: 57.6 (5.02) beats per minute
change of heart rate from predose, Mean (SD) [14]: −10.9 (9.26) beats per minute
heart rate, Mean (SD) [14]: 56.4 (6.87) beats per minute
change of heart rate from predose, Mean (SD) [15]: −11.2 (11.10) beats per minute
heart rate, Mean (SD) [15]: 56.2 (7.86) beats per minute
change of heart rate from predose, Mean (SD) [16]: −9.7 (10.96) beats per minute
heart rate, Mean (SD) [16]: 57.7 (7.24) beats per minute
change of heart rate from predose, Mean (SD) [17]: −12.8 (10.17) beats per minute
heart rate, Mean (SD) [17]: 54.5 (6.07) beats per minute
change of heart rate from predose, Mean (SD) [18]: −10.4 (11.42) beats per minute
heart rate, Mean (SD) [18]: 56.9 (6.88) beats per minute
change of heart rate from predose, Mean (SD) [19]: −12.8 (10.52) beats per minute
heart rate, Mean (SD) [19]: 54.5 (6.86) beats per minute
change of heart rate from predose, Mean (SD) [20]: −9.0 (11.92) beats per minute
heart rate, Mean (SD) [20]: 58.3 (8.53) beats per minute
change of heart rate from predose, Mean (SD) [21]: −11.3 (9.86) beats per minute
heart rate, Mean (SD) [21]: 56.0 (5.17) beats per minute
change of heart rate from predose, Mean (SD) [22]: −10.2 (10.81) beats per minute
heart rate, Mean (SD) [22]: 57.2 (6.79) beats per minute
change of heart rate from predose, Mean (SD) [23]: −11.3 (9.41) beats per minute
heart rate, Mean (SD) [23]: 56.1 (7.38) beats per minute
heart rate, Mean (SD) (Predose (before first IMP administration)): 67.3 (8.18) beats per minute
heart rate (Control (before administration)): 67.8 beats per minute
heart rate (high dose (landiolol 40, esmolol 200 μg/kg/min), time 720 min): 57.5 beats per minute
heart rate (high dose (landiolol 40, esmolol 200 μg/kg/min), time 1200 min): 53.6 beats per minute
heart rate (low dose (landiolol 10, esmolol 50 μg/kg/min), time 12 min): 62.7 beats per minute
heart rate (low dose (landiolol 10, esmolol 50 μg/kg/min), time 16 min): 60.3 beats per minute
heart rate (low dose (landiolol 10, esmolol 50 μg/kg/min), time 30 min): 59.5 beats per minute
heart rate (low dose (landiolol 10, esmolol 50 μg/kg/min), time 60 min): 57.8 beats per minute
heart rate (low dose (landiolol 10, esmolol 50 μg/kg/min), time 120 min): 56.2 beats per minute
heart rate (medium dose (landiolol 20, esmolol 100 μg/kg/min), time 240 min): 56.1 beats per minute
heart rate (time after administration 12 min (end at 1440 min)): 63.5 beats per minute
heart rate (time after administration 16 min): 67 beats per minute
heart rate (time after administration 30 min): 70 beats per minute
heart rate (time after administration 60 min): 69.2 beats per minute
heart rate (time after administration 120 min): 66.8 beats per minute
overshoot effect on heart rate (after termination of long term administration, listed as landiolol-hydrochloride, monohydrochloride): avoiding any overshoot effect; also recorded: no significant overshoot effect occurs
tolerance effect (long term administration): without showing any tolerance effects
heart rate effect during administration (long term administration, listed as landiolol-hydrochloride, monohydrochloride): persistent reduction of heart rate; also recorded: significantly lower than the heart rate and/or blood pressure values achieved under esmolol long-term treatment
